Assay results reported in patent US9156845B2, “4-(substituted amino)-7H-pyrrolo[2,3-d] pyrimidines as LRRK2 inhibitors” (Pfizer Inc., priority 2012, dated 2015).

Key:
Experiment in all cases: ActivX kinase probe assay (human PBMC)
Assay type in all cases: binding
[1] = test system: ABL, ARG
[2] = biological target: GCK (Homo sapiens (Human), UniProt Q12851); conditions: GCK, read-out: percent inhibition
[3] = biological target: IRE1 (Homo sapiens (Human), UniProt O75460); conditions: IRE1, read-out: percent inhibition
[4] = biological target: FER (Homo sapiens (Human), UniProt P16591); conditions: FER, read-out: percent inhibition
[5] = test system: CDK11, CDK8
[6] = biological target: NEK7 (Homo sapiens (Human), UniProt Q8TDX7); conditions: NEK7, read-out: percent inhibition
Sequence of NEK7 (Q8TDX7 whole entry): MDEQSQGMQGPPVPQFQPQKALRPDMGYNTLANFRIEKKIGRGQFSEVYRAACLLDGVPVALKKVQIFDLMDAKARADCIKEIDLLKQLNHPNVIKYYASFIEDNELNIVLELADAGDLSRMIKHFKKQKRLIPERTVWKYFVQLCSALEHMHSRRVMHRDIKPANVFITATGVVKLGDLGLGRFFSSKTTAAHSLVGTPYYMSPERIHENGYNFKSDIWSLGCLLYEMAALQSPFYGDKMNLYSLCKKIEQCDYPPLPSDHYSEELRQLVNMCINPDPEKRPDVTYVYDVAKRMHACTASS

[7] = biological target: MST1 (Homo sapiens (Human), UniProt Q13043); conditions: read-out: percent inhibition
Sequence of MST1 (Q13043 whole entry): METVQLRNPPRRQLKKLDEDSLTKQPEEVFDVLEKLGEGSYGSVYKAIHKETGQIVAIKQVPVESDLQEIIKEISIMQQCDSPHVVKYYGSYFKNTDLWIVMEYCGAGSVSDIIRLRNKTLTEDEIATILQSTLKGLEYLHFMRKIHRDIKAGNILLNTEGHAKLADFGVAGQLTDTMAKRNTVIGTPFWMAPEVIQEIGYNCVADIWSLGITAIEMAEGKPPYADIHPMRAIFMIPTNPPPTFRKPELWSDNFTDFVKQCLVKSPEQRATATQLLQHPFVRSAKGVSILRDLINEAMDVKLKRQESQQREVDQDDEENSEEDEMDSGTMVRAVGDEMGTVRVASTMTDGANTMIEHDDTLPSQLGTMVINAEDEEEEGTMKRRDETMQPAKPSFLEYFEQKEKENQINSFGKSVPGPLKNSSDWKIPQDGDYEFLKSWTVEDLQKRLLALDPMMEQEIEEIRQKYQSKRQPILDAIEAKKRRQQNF

[8] = biological target: NuaK2 (Homo sapiens (Human), UniProt Q9H093); conditions: NuaK2, read-out: percent inhibition
[9] = test system: MST1, MST2
[10] = biological target: CDC2 (Homo sapiens (Human), UniProt P06493); conditions: CDC2, read-out: percent inhibition
Sequence of CDC2 (P06493 whole entry): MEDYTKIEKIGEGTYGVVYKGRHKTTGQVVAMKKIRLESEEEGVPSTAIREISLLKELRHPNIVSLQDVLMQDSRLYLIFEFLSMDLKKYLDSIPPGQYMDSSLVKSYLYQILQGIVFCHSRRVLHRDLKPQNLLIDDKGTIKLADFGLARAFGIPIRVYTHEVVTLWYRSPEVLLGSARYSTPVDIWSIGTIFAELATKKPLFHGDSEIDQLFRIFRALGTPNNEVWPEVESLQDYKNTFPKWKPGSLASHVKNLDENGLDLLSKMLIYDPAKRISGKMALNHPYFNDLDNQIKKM

[11] = biological target: LRRK2 (Homo sapiens (Human), UniProt Q5S007); conditions: read-out: percent inhibition
[12] = biological target: SLK (Homo sapiens (Human), UniProt Q9H2G2); conditions: SLK, read-out: percent inhibition
[13] = biological target: smMLCK (Homo sapiens (Human), UniProt Q15746); conditions: smMLCK, read-out: percent inhibition
[14] = test system: KSR1, KSR2
[15] = test system: FYN, SRC, YES
[16] = biological target: NEK1 (Homo sapiens (Human), UniProt Q96PY6); conditions: NEK1, read-out: percent inhibition
Sequence of NEK1 (Q96PY6 whole entry): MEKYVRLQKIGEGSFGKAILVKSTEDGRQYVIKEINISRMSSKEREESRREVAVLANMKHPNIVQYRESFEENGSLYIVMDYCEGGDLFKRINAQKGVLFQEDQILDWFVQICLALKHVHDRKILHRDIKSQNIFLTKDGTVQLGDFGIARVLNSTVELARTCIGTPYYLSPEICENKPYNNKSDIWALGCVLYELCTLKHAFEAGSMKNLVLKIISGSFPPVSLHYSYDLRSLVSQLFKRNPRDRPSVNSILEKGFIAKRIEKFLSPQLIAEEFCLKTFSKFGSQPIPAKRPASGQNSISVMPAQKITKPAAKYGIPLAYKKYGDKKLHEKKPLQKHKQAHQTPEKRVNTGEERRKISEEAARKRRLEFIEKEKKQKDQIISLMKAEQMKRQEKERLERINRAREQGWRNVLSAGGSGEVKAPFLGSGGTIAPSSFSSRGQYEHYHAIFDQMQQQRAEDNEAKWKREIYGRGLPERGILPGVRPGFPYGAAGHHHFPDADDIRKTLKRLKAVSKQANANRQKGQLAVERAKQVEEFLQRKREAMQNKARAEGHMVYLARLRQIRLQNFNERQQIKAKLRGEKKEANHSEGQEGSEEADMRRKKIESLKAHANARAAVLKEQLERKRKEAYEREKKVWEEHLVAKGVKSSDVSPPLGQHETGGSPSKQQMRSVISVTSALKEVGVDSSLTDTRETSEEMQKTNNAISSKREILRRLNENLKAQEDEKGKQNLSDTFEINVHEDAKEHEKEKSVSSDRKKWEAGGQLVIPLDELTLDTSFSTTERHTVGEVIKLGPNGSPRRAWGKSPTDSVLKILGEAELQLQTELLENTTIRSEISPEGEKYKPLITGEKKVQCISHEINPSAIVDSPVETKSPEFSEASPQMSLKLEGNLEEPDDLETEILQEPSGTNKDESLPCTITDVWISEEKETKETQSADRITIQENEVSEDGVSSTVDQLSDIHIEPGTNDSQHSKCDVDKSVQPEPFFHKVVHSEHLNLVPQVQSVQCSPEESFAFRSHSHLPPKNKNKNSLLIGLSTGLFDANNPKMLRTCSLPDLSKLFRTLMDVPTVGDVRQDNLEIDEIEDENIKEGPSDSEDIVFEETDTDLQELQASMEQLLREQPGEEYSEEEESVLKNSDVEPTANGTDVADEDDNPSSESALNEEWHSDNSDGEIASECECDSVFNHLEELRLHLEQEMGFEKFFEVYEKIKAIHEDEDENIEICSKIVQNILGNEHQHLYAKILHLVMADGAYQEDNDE

[17] = biological target: PRPK (Homo sapiens (Human), UniProt Q96S44); conditions: read-out: percent inhibition
Description: Certain of the compounds of the present invention were assessed for kinase selectivity using a commercially available ActiveX targeted kinase probe in which the tissue employed was human peripheral blood mononuclear cells (PBMC). The test compounds were provided to ActivX Biosciences, Inc., 11025 North Torrey Pines Road, Suite 120; LaJolla, Calif., USA 92037. The compounds were run in the ActivX proprietary kinase assay and results were obtained at compound test concentrations of 1 μM (columns 2, 4 and 6) and 0.1 μM (columns 3, 5 and 7). The results as percent inhibition obtained for the compounds of Examples 1, 4 and 217 are provided below in Table 3.

[18] = biological target: ZAK (Homo sapiens (Human), UniProt Q9NYL2); conditions: ZAK, read-out: percent inhibition
[19] = biological target: PIK3CD (Homo sapiens (Human), UniProt O00329); conditions: PIK3CD, read-out: percent inhibition
Sequence of PIK3CD (O00329 whole entry): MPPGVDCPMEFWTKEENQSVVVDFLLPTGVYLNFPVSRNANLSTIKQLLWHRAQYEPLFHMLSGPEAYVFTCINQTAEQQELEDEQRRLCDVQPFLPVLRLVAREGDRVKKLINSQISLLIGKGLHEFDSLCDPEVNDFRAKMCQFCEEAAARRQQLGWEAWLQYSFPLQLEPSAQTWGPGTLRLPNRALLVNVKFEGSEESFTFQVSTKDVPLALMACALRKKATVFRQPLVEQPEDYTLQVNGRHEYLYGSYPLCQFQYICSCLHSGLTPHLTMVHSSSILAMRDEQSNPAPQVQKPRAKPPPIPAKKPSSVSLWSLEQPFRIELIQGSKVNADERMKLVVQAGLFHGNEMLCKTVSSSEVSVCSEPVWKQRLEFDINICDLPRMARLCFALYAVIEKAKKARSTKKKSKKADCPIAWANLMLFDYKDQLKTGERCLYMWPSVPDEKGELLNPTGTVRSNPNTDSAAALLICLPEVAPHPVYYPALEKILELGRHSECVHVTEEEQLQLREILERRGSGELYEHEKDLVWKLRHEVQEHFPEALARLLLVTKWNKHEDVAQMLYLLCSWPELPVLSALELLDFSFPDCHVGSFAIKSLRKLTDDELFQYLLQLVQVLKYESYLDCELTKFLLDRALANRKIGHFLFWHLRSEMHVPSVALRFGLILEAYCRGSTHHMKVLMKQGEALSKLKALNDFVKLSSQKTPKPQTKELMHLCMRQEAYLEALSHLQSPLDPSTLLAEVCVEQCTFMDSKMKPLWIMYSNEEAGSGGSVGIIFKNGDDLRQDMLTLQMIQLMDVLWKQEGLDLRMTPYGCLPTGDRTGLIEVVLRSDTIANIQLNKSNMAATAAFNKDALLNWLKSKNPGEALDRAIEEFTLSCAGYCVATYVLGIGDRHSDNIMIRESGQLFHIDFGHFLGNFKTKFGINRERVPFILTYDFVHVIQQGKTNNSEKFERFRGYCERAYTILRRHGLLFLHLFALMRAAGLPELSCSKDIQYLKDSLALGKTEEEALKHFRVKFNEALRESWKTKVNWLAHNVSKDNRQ
Sequence of PIK3CD (P27986 whole entry partner): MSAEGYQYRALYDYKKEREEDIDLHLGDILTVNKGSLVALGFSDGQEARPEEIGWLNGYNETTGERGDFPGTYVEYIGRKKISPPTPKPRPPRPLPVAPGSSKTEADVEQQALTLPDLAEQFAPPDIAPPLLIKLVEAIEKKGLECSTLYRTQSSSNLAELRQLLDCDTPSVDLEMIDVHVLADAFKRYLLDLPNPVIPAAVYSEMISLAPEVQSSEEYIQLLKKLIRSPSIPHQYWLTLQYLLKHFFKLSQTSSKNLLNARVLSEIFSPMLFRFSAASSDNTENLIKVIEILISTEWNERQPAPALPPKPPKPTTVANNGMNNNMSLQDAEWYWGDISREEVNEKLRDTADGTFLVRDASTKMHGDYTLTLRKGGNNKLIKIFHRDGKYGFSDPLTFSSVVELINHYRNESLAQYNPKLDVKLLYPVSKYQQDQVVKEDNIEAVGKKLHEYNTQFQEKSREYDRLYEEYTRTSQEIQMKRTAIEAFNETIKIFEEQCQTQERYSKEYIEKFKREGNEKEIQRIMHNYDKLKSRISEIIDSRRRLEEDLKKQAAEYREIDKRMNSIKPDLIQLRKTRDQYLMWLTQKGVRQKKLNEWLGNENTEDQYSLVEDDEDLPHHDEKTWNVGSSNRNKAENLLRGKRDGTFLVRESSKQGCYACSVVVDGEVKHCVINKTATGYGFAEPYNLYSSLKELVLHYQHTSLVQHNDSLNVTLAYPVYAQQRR

[20] = biological target: PIK3CB (Homo sapiens (Human), UniProt P42338); conditions: PIK3CB, read-out: percent inhibition
[21] = biological target: MST2 (Homo sapiens (Human), UniProt Q13188); conditions: read-out: percent inhibition
[22] = biological target: MAP2K6 (Homo sapiens (Human), UniProt P52564); conditions: MAP2K6, read-out: percent inhibition
[23] = biological target: PIP5K3 (Homo sapiens (Human), UniProt Q9Y2I7); conditions: PIP5K3, read-out: percent inhibition
[24] = test system: NEK6, NEK7
[25] = biological target: CHK2 (Homo sapiens (Human), UniProt O96017); conditions: CHK2, read-out: percent inhibition
[26] = biological target: DGKA (Homo sapiens (Human), UniProt P23743); conditions: DGKA, read-out: percent inhibition
[27] = biological target: PIK3CG (Homo sapiens (Human), UniProt P48736); conditions: PIK3CG, read-out: percent inhibition
[28] = biological target: Erk5 (Homo sapiens (Human), UniProt Q13164); conditions: Erk5, read-out: percent inhibition
[29] = biological target: FGR (Homo sapiens (Human), UniProt P09769); conditions: FGR, read-out: percent inhibition

Sequence of GCK (Q12851 whole entry): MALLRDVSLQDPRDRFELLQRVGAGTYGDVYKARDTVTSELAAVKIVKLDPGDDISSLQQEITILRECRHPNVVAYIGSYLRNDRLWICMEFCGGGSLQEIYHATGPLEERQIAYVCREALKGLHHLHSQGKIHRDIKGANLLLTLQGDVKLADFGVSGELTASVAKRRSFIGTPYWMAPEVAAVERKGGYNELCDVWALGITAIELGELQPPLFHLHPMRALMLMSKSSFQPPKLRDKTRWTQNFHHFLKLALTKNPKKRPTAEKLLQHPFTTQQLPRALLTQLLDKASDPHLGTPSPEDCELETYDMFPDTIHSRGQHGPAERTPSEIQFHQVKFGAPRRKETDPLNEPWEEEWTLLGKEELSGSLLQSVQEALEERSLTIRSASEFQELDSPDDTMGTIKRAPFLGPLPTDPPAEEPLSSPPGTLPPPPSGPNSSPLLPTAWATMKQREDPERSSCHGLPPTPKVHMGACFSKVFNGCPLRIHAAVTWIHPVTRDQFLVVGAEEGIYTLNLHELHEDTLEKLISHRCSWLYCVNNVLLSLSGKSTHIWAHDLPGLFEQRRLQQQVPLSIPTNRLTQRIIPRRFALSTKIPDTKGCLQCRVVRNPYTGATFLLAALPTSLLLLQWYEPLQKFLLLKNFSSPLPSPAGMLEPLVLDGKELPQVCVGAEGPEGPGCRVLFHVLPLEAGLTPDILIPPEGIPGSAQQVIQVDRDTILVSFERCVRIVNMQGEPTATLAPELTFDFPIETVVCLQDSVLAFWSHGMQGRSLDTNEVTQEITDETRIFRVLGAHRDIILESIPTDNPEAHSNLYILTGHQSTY

## Cn1cc(-c2c[nH]c3ncnc(N4CCOCC4)c23)cn1 [Example 1, 5-(1-Methyl-1H-pyrazol-4-yl)-4-(morpholin-4-yl)-7H-pyrrolo[2,3-d]pyrimidine]
[1]; 0.1 μM
  percent inhibition: 25.8%
[1]; 1 μM
  percent inhibition: 22.5%
[2]; 0.1 μM
  inhibition at 0.1 µM: 4.4%
[2]; 1 μM
  inhibition at 1 µM: -6.7%
[3]; 0.1 μM
  inhibition at 0.1 µM: -1.3%
[3]; 1 μM
  inhibition at 1 µM: -8%
[4]; 0.1 μM
  inhibition at 0.1 µM: -7.3%
[4]; 1 μM
  inhibition at 1 µM: -17.9%
[5]; 0.1 μM
  percent inhibition: 4.4%
[5]; 1 μM
  percent inhibition: 2.4%
[6]; 0.1 μM
  inhibition at 0.1 µM: -0.6%
[6]; 1 μM
  inhibition at 1 µM: -18.8%
[7]; 0.1 μM
  inhibition at 0.1 µM: 13.2%
[7]; 1 μM
  inhibition at 1 µM: 50.8%
[8]; 0.1 μM
  inhibition at 0.1 µM: 3.6%
[8]; 1 μM
  inhibition at 1 µM: 8.9%
[9]; 0.1 μM
  percent inhibition: −14.5%
[9]; 1 μM
  percent inhibition: 24.8%
[10]; 0.1 μM
  inhibition at 0.1 µM: -4%
[10]; 1 μM
  inhibition at 1 µM: 14.7%
[11]; 0.1 μM
  inhibition at 0.1 µM: 69%
[11]; 1 μM
  inhibition at 1 µM: 88.1%
[12]; 0.1 μM
  inhibition at 0.1 µM: 22.9%
[12]; 1 μM
  inhibition at 1 µM: 50.6%
[13]; 0.1 μM
  inhibition at 0.1 µM: -11.5%
[13]; 1 μM
  inhibition at 1 µM: -1.9%
[14]; 0.1 μM
  percent inhibition: 1.5%
[14]; 1 μM
  percent inhibition: −14%
[15]; 0.1 μM
  percent inhibition: −24.1%
[15]; 1 μM
  percent inhibition: −56.3%
[16]; 0.1 μM
  inhibition at 0.1 µM: 7%
[16]; 1 μM
  inhibition at 1 µM: -10.1%
[17]; 0.1 μM
  inhibition at 0.1 µM: -3.4%
[17]; 1 μM
  inhibition at 1 µM: -13.8%
[18]; 0.1 μM
  inhibition at 0.1 µM: 15%
[18]; 1 μM
  inhibition at 1 µM: 23.1%
[19]; 0.1 μM
  inhibition at 0.1 µM: -102%
[19]; 1 μM
  inhibition at 1 µM: -65.4%
[20]; 0.1 μM
  inhibition at 0.1 µM: -2.6%
[20]; 1 μM
  inhibition at 1 µM: -29.8%
[21]; 0.1 μM
  inhibition at 0.1 µM: 10.1%
[21]; 1 μM
  inhibition at 1 µM: 49.4%
[22]; 0.1 μM
  inhibition at 0.1 µM: 17.5%
[22]; 1 μM
  inhibition at 1 µM: 19%
[23]; 0.1 μM
  inhibition at 0.1 µM: 1.9%
[23]; 1 μM
  inhibition at 1 µM: 15%
[24]; 0.1 μM
  percent inhibition: −1.7%
[24]; 1 μM
  percent inhibition: −17%
[25]; 0.1 μM
  inhibition at 0.1 µM: 0.9%
[25]; 1 μM
  inhibition at 1 µM: 17.7%
[26]; 0.1 μM
  inhibition at 0.1 µM: -21%
[26]; 1 μM
  inhibition at 1 µM: -16.6%
[27]; 0.1 μM
  inhibition at 0.1 µM: -18.6%
[27]; 1 μM
  inhibition at 1 µM: -62.9%
[28]; 0.1 μM
  inhibition at 0.1 µM: -32.8%
[28]; 1 μM
  inhibition at 1 µM: -41.9%
[29]; 0.1 μM
  inhibition at 0.1 µM: 12.9%
[29]; 1 μM
  inhibition at 1 µM: 4.6%
